Holding throughout (format): cell-based
The subject of assay [1] is MB-MDA-435 breast cancer cells expressing E-cadherin. Description: Wound-filling (cell migration) assay, G12-stimulated cell escape. To be noted: MB-MDA-435 cells with E-cadherin and mutationally-activated Gα12; free-migrating cells 39 h after wounding. Here is the method: To determine whether G12 proteins could influence cadherin-mediated suppression of cell migration, wound-filling assays using MB-MDA-435 breast cancer cells expressing E-cadherin were conducted. This system is believed to mimic the escape of potentially metastatic cells from the primary tumor. When a monolayer of cells was wounded by scraping, MB-MDA-435 cells lacking E-cadherin (435-puro) frequently broke free from the advancing “wall” of cells and migrated into the wound area as lone or “free migrating” cells.
Wound-filling assays were performed using MB-MDA-435 cells harboring E-cadherin (435-E-cad) or a control plasmid (435-puro), that were infected 40 h earlier with recombinant adenoviruses expressing either mutationally-activated Gα12 (12^QL) or mutationally-activated Gαi2 (control). Cells were visualized by fluorescence microscopy for GFP expression (indicative of successful adenovirus infection). Cells were photographed at time of initial wounding, performed by scraping cell monolayers with a pipette tip and marling the wounded areas for orientation. Marked areas were re-photographed 39 h after wounding (lower panels). […] Data from 5 randomly selected view fields are presented as mean ±S.E. for each condition. E-cadherin lacking the G12-interacting region fails to suppress cell migration. […]

The next assay deals with MB-MDA-231 cell line. Description: Matrigel invasion assay, MB-MDA-231. To be noted: 50 nM thrombin, 24 hrs, MB-MDA-231 cells, Cyquant quantification. Here is the method:
(§1) To examine the role of G12/13 in breast cancer invasion, the Matrigel (BD biosciences) invasion assay was used. In this assay, transwell migration chambers are coated with Matrigel, an artificial extracellular matrix believed to closely resemble basal lamina in structure and content. Cells are then plated on top of this matrix and allowed to invade the matrigel and migrate to the underside of the membrane. The cells that reach the underside of the membrane are then quantified as a measure of invasiveness. This system serves as a model for primary tumor invasion, as the matrix mimics the microenvironment through which the cancer cells must pass in order to metastasize.
(§2) MB-MDA-231 and MCF-7 cells were plated on top of a Matrigel (BD Biosciences) coated polycarbonate filter (8.0 μM pore). The filter was transferred to a chamber containing 0.1% BSA-DMEM and the cells were allowed to adhere for 1 hr. The cells were then stimulated with 50 nM thrombin. After 24 hrs, the cells were detached from the underside of the filter and quantified using the Cyquant (Molecular Probes) cell enmieration kit. […] Using retrovirus, stable MB-MDA-231 cell lines expressing p115RGS, RGS2 (see text) or the appropriate vector control were generated. Invasion assays were then preformed as in (a) using these cells.

A further assay has as its system MCF-7 cell line. Description: Matrigel invasion assay, MCF-7. To be noted: 50 nM thrombin, 24 hrs, MCF-7 cells, Cyquant quantification. How it is done: as §1, §2

`C[C@@H](N)[C@H]1CC[C@H](C(=O)Nc2ccncc2)CC1` [Y27632]: the “effect on the G12-stimulated cell escape” value in assay [1] is listed as “no effect”. For the compound thrombin, the “invasion through Matrigel” value in the assay with MB-MDA-231 cell line is “stimulates invasion”; in the assay on MCF-7 cell line, “not”.

These data come from patent US20080260720A1, “Systems and Methods for Inhibiting Metastasis” (priority 2004, published 2008).
